Like-named read-outs stand apart in the source and are kept apart here.
Tests used:
erythrocytic cells [1] = assay: Hemolysis / survival of freeze-dried and rehydrated erythrocytic cells
Protocol: Cells were loaded in either 800 mM trehalose, 100 mOsm ADSOL, 6.6 mM Na-phosphate (FIG. 21, data set labeled as 800 mM treh) or in 800 mM trehalose, 100 mOsm ADSOL, 6.6 mM Na-phosphate and 1.2 mg/ml α-crystallin (FIG. 21, data set labeled as +α-crystallin 1.2 mg/ml). Cells were subsequently mixed with freeze-drying buffer with final concentration of 250 mM trehalose, 20 mOsm ADSOL, 15% HES and 2.5% HSA and were freeze-dried. After freeze-drying they were directly rehydrated (no pre-hydration) in 141 mM trehalose, 75 mOsm PBS, 11.25% HES and 1.875% HSA. […] In the third data set of FIG. 21, along with 1.2 mg/ml α-crystallin, there was 0.5 mg/ml α-crystallin added to the rehydration buffer.
Rehydration experiments were performed combining α-crystallin and Zn^2+ ions, and applying 5 min pre-hydration.
The cells were loaded in media with different trehalose concentration (400, 500, 600, 700 and 800 mM trehalose) in 100 mOsm PBS pH 7.2. The cells were freeze-dried in 300 mM trehalose in 100 mOsm PBS, 15% HES and 2.54% HSA and rehydrated in a buffer containing 188 mM trehalose, 15% HES and 2.5% HSA.
Loading buffer comprised 800 mM trehalose in a salt solution of 100 mOsm PBS. The incubation time was 16 hours at a temperature of about 35° C. After the cells were loaded, they were subsequently washed in a washing buffer comprising 300 mM in a salt solution of 100 mOsm PBS. Within 3 hours after washing the loaded cells, the wash loaded cells were freeze-dried in freeze-drying buffer comprising about 300 mM trehalose, about 100 mOsm PBS, about 2.5% by wt. HSA, and about 15% by wt. HES. After the freeze-drying procedure the cells had about 75 mM trehalose, about 25 mOsm PBS, about 0.6% by wt. HSA and about 4.0% by wt. HES left in the cells. The freeze-dried cells were then reconstituted at about 37° C. for about 10 minutes in a rehydration buffer comprising about 188 mM trehalose, about 100 mOsm PBS, about 2.5% by wt.

erythrocytic cells [2] = assay: Percent hemolysis of erythrocytic cells during loading or incubation; type: cell-based; details: for percent hemolysis: 800 mM trehalose, 100 mOsm ADSOL, 6.6 mM K-phosphate
Protocol: FIG. 9 graphically illustrates % hemolysis of loaded cells as a function of time (hours) of incubation in 300 mOsm PBS pH 7.2. The erythrocytic cells were loaded in 700 mM trehalose in 100 mOsm PBS pH 7.2 at 35° C. for 16 hours. After the loading step, the cells were incubated in 300 mOsm PBS pH 7.2 between 1 and 25 hours. This buffer was used for washing the loaded cells and it was important to determine the stability of the loaded cells when they were suspended in this buffer. Cell stability was assessed by measuring the percent hemolysis over the course of 25 hours. […] Between 7 and 25 hours, there was only a small change in the percent hemolysis (from about 25% to about 30%).
FIG. 10 graphically illustrates time course (incubation time, hours) of hemolysis(%) of trehalose-loaded cells as a function of the composition of the incubation buffer. Erythrocytic cells were loaded in 700 mM trehalose in 100 mOsm PBS pH 7.2 for 16 hours at 35° C. They were washed with 300 mOsm PBS pH 7.2 and were subsequently transferred to storage media with increasing trehalose concentrations (between 100 mM and 300 mM trehalose) added to 100 mOsm PBS pH 7.2. The percent hemolysis was measured over the course of 3 hours. […]
At 23° C., the percent hemolysis increases to 7% during 6 hours of incubation. At 37° C., between 10 and 12% hemolysis is observed during incubation of erythrocytic cells between 6 and 9 hours. […] Such intracellular concentration of trehalose provides high survival of erythrocytic cells after freeze-drying and rehydration, therefore these conditions (incubation in trehalose medium between 6 and 9 hours at 37° C.) can be used for loading erythrocytic cells.

platelets = assay: Stability of platelets during incubation (microscopy, flow cytometric analysis); type: cell-based, human
Protocol: The stability of the platelets during a 4 hours incubation period was studied using microscopy and flow cytometric analysis. […] No signs of microvesicle formation could be observed after 4 hours incubation, as can be judged by the stable relative proportion of microvesicle gated cells (less than 3%). The formation of microvesicles is usually considered as the first sign of platelet activation (Owners et al., Trans. Med. Rev., 8, 27-44, 1994). Characteristic antigens of platelet activation include: glycoprotein 53 (gp53, a lysosomal membrane marker), PECAM-1 (platelet endothelial cell adhesion molecule-1, an alpha granule constituent), and P-selection (an alpha granule membrane protein).

human erythrocytic cells = assay: Trehalose uptake by erythrocytic cells (anthrone assay, HPLC); type: cell-based
Protocol: FIG. 5 graphically illustrates the loading efficiency of trehalose into human erythrocytic cells as a function of external trehalose concentration at respective temperatures of 4° C. and 37° C. Erythrocytic cells were exposed to trehalose for 18 hours at either 4° C. or 37° C. The trehalose concentration in the incubation medium varied between 230 mM and 1000 mM. Each incubation buffer contained trehalose (between 230 mM and 1000 mM) and 100 mOsm PBS pH 7.2. Increase in the trehalose concentration in the loading medium results in an increase in the sugar uptake, reaching about 100 mM cytoplasmic trehalose in erythrocytes incubated in 1000 mM trehalose and 100 mOsm PBS. At 4° C., the uptake was very limited, being about 25 mM. The trehalose intake was measured using anthrone assay and confirmed by high performance liquid chromatography. It is clear that there was substantial loading at 37° C., but not at 4° C. Furthermore, trehalose loading was not significant unless the extracellular cellular trehalose concentration gives a hyperosmotic pressure.
FIG. 7 graphically illustrates trehalose uptake (i.e., intracellular trehalose mM) and hemolysis (i.e., % hemolysis) as a function of incubation temperature (° C.). The incubation temperature was varied between 4° C. and 37° C. […] Between 4° C. and 30° C., the cytoplasmic trehalose was very low (between 1 and 4 mM).
100 mOsm ADSOL contains 24 mM glucose, 0.43 mM adenine, 33.3 mM NaCl and 8.9 mM mannitol. Four different temperatures of incubation were used: 4° C., 23° C., 37° C. and 41° C. […] At 23° C., the uptake was higher than at 4° C. and increased with increase of the time of incubation reaching 22 mM intracellular trehalose. At 37° C., the highest uptake of trehalose by the erythrocytic cells was observed within 16 hours (60 mM). At 41° C., the uptake was slightly higher than that observed at 37° C. within 6 hours.

erythrocytic cells [3] = assay: Mean corpuscular hemoglobin of trehalose-loaded, freeze-dried and rehydrated erythrocytic cells; type: cell-based
Protocol: The cells had been loaded in media with different trehalose concentration (400 mM trehalose, 500 mM trehalose, 600 mM trehalose, 700 mM trehalose and 800 mm trehalose) in 100 mOsm PBS pH 7.2. The cells were freeze-dried in 300 mM trehalose in 100 mOsm PBS, 15% HES and 2.54% HSA and rehydrated in a buffer containing 188 mM trehalose, 15% HES and 2.5% HSA.

[4] = about 37° C., about nine(9) hours

**Q.** With `OC[C@H]1O[C@H](O[C@H]2O[C@H](CO)[C@@H](O)[C@H](O)[C@H]2O)[C@H](O)[C@@H](O)[C@@H]1O` [trehalose] as the compound, how does the “biconcave shape and cell integrity of rehydrated cells” value (erythrocytic cells [1]; 60 mM cytoplasmic trehalose, freeze-dried and rehydrated (FIG. 14)) read?
**A.** The value was “well preserved”.

**Q.** What about the “cells lysed after rehydration” value (erythrocytic cells [1]; protocol of Example 12: loaded 800 mM trehalose/100 mOsm PBS, freeze-dried and rehydrated with trehalose, PBS, HSA, HES) of the same compound?
**A.** Its value is “less than 5%”.

**Q.** And the hemolysis at 100000 µM (erythrocytic cells [1]; read-out: % hemolysis of rehydrated cells)?
**A.** The hemolysis at 100000 µM was < 10%.

**Q.** What about the hemolysis at 800000 µM (erythrocytic cells [1]; read-out: hemolysis after freeze-drying and direct rehydration) of the same compound?
**A.** The hemolysis at 800000 µM was 63%.

**Q.** And the hemolysis at 800000 µM (erythrocytic cells [1]; read-out: percent hemolysis after freeze-drying and direct rehydration)?
**A.** Its hemolysis at 800000 µM is 68%.

**Q.** What about the percent hemolysis (erythrocytic cells [2]; 23° C., 6 hours) of the same compound?
**A.** The percent hemolysis was 7%.

**Q.** What about the percent hemolysis (erythrocytic cells [2]; 23° C., nine(9) hours) of the same compound?
**A.** The percent hemolysis was “about 7%”.

**Q.** And the percent hemolysis (erythrocytic cells [2]; 37° C., nine(9) hours)?
**A.** The percent hemolysis was “about 12%”.

**Q.** What about the “hemolysis (%) to incubation (hours) hemolysis gradient” value (erythrocytic cells [2]; about 23° C.) of the same compound?
**A.** Its value is “about 0.38”.

**Q.** And the “hemolysis (%) to incubation (hours) hemolysis gradient” value (erythrocytic cells [2]; [4])?
**A.** The value was “about 0.25”.

**Q.** What about the “percent hemolysis of trehalose-loaded cells” value (erythrocytic cells [2]; loaded in 700 mM trehalose/100 mOsm PBS 35° C. 16 hours, start of incubation in 300 mOsm PBS pH 7.2) of the same compound?
**A.** Its value is “about 7%”.

**Q.** What about the “percent hemolysis of trehalose-loaded cells” value (erythrocytic cells [2]; loaded in 700 mM trehalose/100 mOsm PBS, 7 hours in 300 mOsm PBS pH 7.2) of the same compound?
**A.** The value was “about 25%”.

**Q.** What about the “percent hemolysis of trehalose-loaded cells” value (erythrocytic cells [2]; loaded in 700 mM trehalose/100 mOsm PBS, 25 hours in 300 mOsm PBS pH 7.2) of the same compound?
**A.** The value was “about 30%”.

**Q.** And the “percent hemolysis of trehalose-loaded cells” value (erythrocytic cells [2]; storage medium 300 mM trehalose in 100 mOsm PBS, over the course of 3 hours)?
**A.** The value was “about 4%”.

**Q.** And the platelet morphology (platelets; 4 hours incubation at 37° C., 25 mM external trehalose)?
**A.** Its platelet morphology is “No morphological changes”.

**Q.** What about the platelet morphology (platelets; 4 hours incubation in 75 mM trehalose) of the same compound?
**A.** Its platelet morphology is “swollen”.

**Q.** What about the “relative proportion of microvesicle gated cells” value (platelets; after 4 hours incubation) of the same compound?
**A.** The value was “less than 3%”.

**Q.** And the intracellular trehalose (human erythrocytic cells; 800 mM trehalose, 100 mOsm ADSOL, 6.6 mM K-phosphate, 4° C., 16 hours)?
**A.** The intracellular trehalose was 10 mM.

**Q.** And the intracellular trehalose (human erythrocytic cells; 800 mM trehalose, 100 mOsm ADSOL, 6.6 mM K-phosphate, 23° C.)?
**A.** Its intracellular trehalose is 22 mM.

**Q.** What about the intracellular trehalose (human erythrocytic cells; 800 mM trehalose, 100 mOsm ADSOL, 6.6 mM K-phosphate, 37° C., within 16 hours) of the same compound?
**A.** Its intracellular trehalose is 60 mM.

**Q.** What about the cytoplasmic trehalose (human erythrocytic cells; 800 mM trehalose, 100 mOsm ADSOL, 6.6 mM K-phosphate, nine(9) hours at 4° C.) of the same compound?
**A.** Its cytoplasmic trehalose is “about 10 mM”.

**Q.** What about the cytoplasmic trehalose (human erythrocytic cells; 800 mM trehalose, 100 mOsm ADSOL, 6.6 mM K-phosphate, nine(9) hours at 23° C.) of the same compound?
**A.** Its cytoplasmic trehalose is “about 22 mM”.

**Q.** And the cytoplasmic trehalose (human erythrocytic cells; 800 mM trehalose, 100 mOsm ADSOL, 6.6 mM K-phosphate, nine(9) hours at 37° C.)?
**A.** Its cytoplasmic trehalose is “about 60 mM”.

**Q.** What about the cytoplasmic trehalose (human erythrocytic cells; 6 hours in 800 mM trehalose in 100 mOsm PBS pH 7.2, 37° C.) of the same compound?
**A.** Its cytoplasmic trehalose is “up to 35 mM”.

**Q.** And the cytoplasmic trehalose uptake (human erythrocytic cells; 18 hours, 4° C.)?
**A.** Its cytoplasmic trehalose uptake is “about 25 mM”.

**Q.** What about the cytoplasmic trehalose (human erythrocytic cells; 18 hours, 37° C., 1000 mM trehalose and 100 mOsm PBS) of the same compound?
**A.** The cytoplasmic trehalose was “about 100 mM”.

**Q.** And the “trehalose (mM) to incubation (hours) loading gradient” value (human erythrocytic cells; about 23° C.)?
**A.** The value was “about 0.75”.

**Q.** What about the “trehalose (mM) to incubation (hours) loading gradient” value (human erythrocytic cells; [4]) of the same compound?
**A.** Its value is “about 1.25”.

**Q.** What about the intracellular trehalose (human erythrocytic cells; loaded in 400 mM trehalose in 100 mOsm PBS at 35° C. for 16 hours) of the same compound?
**A.** The intracellular trehalose was 3 mM.

**Q.** And the intracellular trehalose (human erythrocytic cells; loaded in 800 mM trehalose in 100 mOsm PBS at 35° C. for 16 hours)?
**A.** The intracellular trehalose was 60 mM.

**Q.** What about the “trehalose left in the cells after freeze-drying” value (human erythrocytic cells; loaded in 800 mM trehalose/100 mOsm PBS 16 hours about 35° C., washed, freeze-dried) of the same compound?
**A.** The value was “about 75 mM”.

**Q.** And the “mean corpuscular hemoglobin in rehydrated cells” value (erythrocytic cells [3]; cells loaded in 400 mM trehalose)?
**A.** The value was “about 7 pg”.

**Q.** And the “mean corpuscular hemoglobin in rehydrated cells” value (erythrocytic cells [3]; cells loaded in 800 mM trehalose)?
**A.** The value was “about 14 pg”.

**Q.** And the MCH (erythrocytic cells [3]; intracellular trehalose about 40 mM to about 42 mM)?
**A.** The MCH was “about 9 pg”.

**Q.** What about the MCH (erythrocytic cells [3]; intracellular trehalose about 60 mM) of the same compound?
**A.** The MCH was “greater than 14 pg”.
